Read-outs that look alike come from different tables or passages of the source.
How the values were obtained:
[1] = biological target: T1, BRD9 (Homo sapiens, UniProt Q9H8M2); assay: Western blot of BRD9 levels in HeLa cells after compound treatment; type: cell-based; settings: 1 μM compound; for remaining activity at 1 µM: Table 2, % of total protein remaining relative to 0.1% DMSO vehicle, HeLa cell lysates; for BRD9 degradation: HeLa cells
T1 construct: Western blot analysis of BRD9 and BRD7 levels after treatment of HeLa cells; endogenous in cells; host or cells: HeLa
T1 sequence (Q9H8M2 1-597): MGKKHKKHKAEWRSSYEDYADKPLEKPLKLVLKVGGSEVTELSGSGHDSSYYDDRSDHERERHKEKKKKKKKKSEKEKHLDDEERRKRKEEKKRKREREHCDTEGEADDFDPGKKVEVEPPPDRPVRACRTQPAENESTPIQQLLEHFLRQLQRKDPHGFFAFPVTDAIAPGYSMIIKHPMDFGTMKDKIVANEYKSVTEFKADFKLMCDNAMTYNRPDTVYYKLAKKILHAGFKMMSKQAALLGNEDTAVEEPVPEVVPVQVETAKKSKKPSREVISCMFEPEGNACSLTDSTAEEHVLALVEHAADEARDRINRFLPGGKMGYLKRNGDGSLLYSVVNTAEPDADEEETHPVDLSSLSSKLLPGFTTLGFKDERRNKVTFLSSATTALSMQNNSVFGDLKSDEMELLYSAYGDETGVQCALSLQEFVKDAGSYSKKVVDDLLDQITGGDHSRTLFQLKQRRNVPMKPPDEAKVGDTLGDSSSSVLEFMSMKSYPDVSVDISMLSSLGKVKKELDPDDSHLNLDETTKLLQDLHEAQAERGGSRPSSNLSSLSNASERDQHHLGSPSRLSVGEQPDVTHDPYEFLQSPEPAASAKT

[2] = Plasma stability, mouse; type: in vitro ADME; settings: 10 µM compound, 37 °C; for half-life at 10 µM: mouse, plasma, pH 7.4, read-out: Plasma stability T 1/2, Mouse
Experimental: Test compound (10 µM) was incubated in pre-warmed plasma at 37 ᵒC (that is buffered to pH 7.4 in ratio of 70:30 plasma to buffer). Immediately, at time zero, then at 30, 60, 120, and 180 min, a 50 µL aliquot of the incubation mixture was removed and mixed with 200 µL acetonitrile containing Donepezil as the internal standard (50 ng/ml) to stop the reaction. The samples were centrifuged to sediment the precipitated protein and the plates then sealed prior to UPLC-MS/MS analysis using a Xevo TQ-S Micro (Waters Corporation, USA).
XLfit (IDBS, UK) was used to calculate the exponential decay and consequently the rate constant (k) from the ratio of peak area of test compound to internal standard at each time point. The half-life was calculated for each test compound from the rate by using the […]
Parallel Artificial Membrane Permeability Assay (PAMPA)
PAMPA was performed using a 96-well pre-coated BD Gentest™ PAMPA plate (BD Biosciences, U.K.). Each well was divided into two chambers; donor and acceptor, separated by a lipid-oil-lipid tri-layer constructed in a porous filter. The effective permeability, Pe, of the compound was measured at pH 7.4. Stock solutions (5 mM) of the compound were prepared in DMSO. The compound was then further diluted to 10 µM in phosphate buffered […]
saline at pH 7.4. […] The compound […]
dissolved in phosphate buffered saline was then added to the donor side of the membrane and phosphate buffered saline without compound was added to the acceptor side. The PAMPA plate was left at room temperature for 5 h. After which time, an aliquot (100 µL) was then

With `COc1cc(-c2cn(C)c(=O)c3cnccc23)cc(OC)c1CN1CCN(CCOCCOCC(=O)N[C@H](C(=O)N2C[C@H](O)C[C@H]2C(=O)NCc2ccc(-c3scnc3C)cc2)C(C)(C)C)CC1` [Compound 5, (2S,4R)-1-((S)-2-(2-(2-(2-(4-(2,6-Dimethoxy-4-(2-methyl-1-oxo-1,2-dihydro-2,7-naphthyridin-4-yl)benzyl)piperazin-1-yl)ethoxy)ethoxy)acetamido)-3,3-dimethylbutanoyl)-4-hydroxy-N-(4-(4-methylthiazol-5-yl)benzyl)pyrrolidine-2-carboxamide] the remaining activity at 1 µM ([1]; 16 h, read-out: BRD9 16 h (%)) was 89%, the BRD9 degradation ([1]; 4 h) was “at most 20%” and the BRD9 degradation ([1]; 16 h) was no more than 30%.

`COc1cc(-c2cn(C)c(=O)c3cnccc23)cc(OC)c1CN1CCN(CCOCCOCCOc2cc(-c3scnc3C)ccc2CNC(=O)[C@@H]2C[C@@H](O)CN2C(=O)[C@@H](NC(=O)C2(F)CC2)C(C)(C)C)CC1` [Compound 26, (2S,4R)-N-(2-(2-(2-(2-(4-(2,6-Dimethoxy-4-(2-methyl-1-oxo-1,2-dihydro-2,7-naphthyridin-4-yl)benzyl)piperazin-1-yl)ethoxy)ethoxy)ethoxy)-4-(4-methylthiazol-5-yl)benzyl)-1-((S)-2-(1-fluorocyclopropane-1-carboxamido)-3,3-dimethylbutanoyl)-4-hydroxypyrrolidine-2-carboxamide] showed a remaining activity at 1 µM ([1]; 4 h, read-out: BRD9 4 h (%)) of 14%.

Work on `COc1cc(-c2cn(C)c(=O)c3cnccc23)cc(OC)c1CN1CCN(CCCCCOc2cc(-c3scnc3C)ccc2CNC(=O)[C@@H]2C[C@H](O)CN2C(=O)[C@@H](NC(=O)C2(F)CC2)C(C)(C)C)CC1` [cisVZ185] yielded a half-life at 10 µM [2] greater than 3 h.

With `COc1cc(-c2cn(C)c(=O)c3cnccc23)cc(OC)c1CN1CCN(CCCCCOc2cc(-c3scnc3C)ccc2CNC(=O)[C@@H]2C[C@@H](O)CN2C(=O)[C@@H](NC(=O)C2(F)CC2)C(C)(C)C)CC1` [Compound 51, (2S,4R)-N-(2-((5-(4-(2,6-Dimethoxy-4-(2-methyl-1-oxo-1,2-dihydro-2,7-naphthyridin-4-yl)benzyl)piperazin-1-yl)pentyl)oxy)-4-(4-methylthiazol-5-yl)benzyl)-1-((S)-2-(1-fluorocyclopropane-1-carboxamido)-3,3-dimethylbutanoyl)-4-hydroxypyrrolidine-2-carboxamide] the “Plasma stability T 1/2, Mouse” value [2] was “high stabilities” and the half-life at 10 µM [2] was greater than 3 h.

— publication PMC6348446 (Journal of Medicinal Chemistry, 2018)
